Reference: article PMC9279437, “Cytopathic SARS-CoV-2 screening on VERO-E6 cells in a large-scale repurposing effort” (Scientific Data, 2022)
Counter-ions that a name gives are not always drawn. Like-named read-outs stand apart in the source and are kept apart here. Peptide text beside a SMILES is read from it. * marks the point of attachment. Cbz = O=C(OCc1ccccc1)*

Experiments:
[1] = tested on: Vero E6 EGFP cells; experiment: Cytotoxicity assessment in dose response without virus infection; details: cytotoxicity in the absence of virus, Vero E6 EGFP, 33 µM to 10 nM
[2] = in vitro; details: Chlorocebus sabaeus (African green monkey)
[3] = tested on: SARS-CoV-2
[4] = tested on: SARS-CoV-2; experiment: microbe, parasite or virus in culture
[5] = Cytotoxicity assessment in dose response without virus infection; details: Chlorocebus sabaeus (African green monkey)
[6] = tested on: Vero E6 EGFP cells
[7] = tested on: SARS-CoV-2; experiment: Primary anti-cytopathicity assay development: control compound profiling, 384-well plates; assay type: cell-based, Severe acute respiratory syndrome coronavirus 2; details: mean
[8] = tested on: coronavirus OCR43; set-up: method as in PMID 33324406; details: LLC-MK2 cells; cited from earlier work
[9] = tested on: SARS CoV-2; set-up: method as in PMID 32473310; details: VERO-E6 cells; cited from earlier work
[10] = ratio of cytotoxic to anti-cytopathic effects
[11] = Severe acute respiratory syndrome coronavirus 2, Vero C1008, 96 h
[12] = Severe acute respiratory syndrome coronavirus 2, read-out: Average IC50, d3 of incubation, 4000 cells seeded
[13] = Severe acute respiratory syndrome coronavirus 2, read-out: Average IC50, d3 of incubation, 8000 cells seeded
[14] = Severe acute respiratory syndrome coronavirus 2, read-out: Average IC50, d4 of incubation, 4000 cells seeded
[15] = Severe acute respiratory syndrome coronavirus 2, read-out: Average IC50, d4 of incubation, 8000 cells seeded
[16] = Severe acute respiratory syndrome coronavirus 2, read-out: Average IC50, d5 of incubation, 4000 cells seeded
[17] = Severe acute respiratory syndrome coronavirus 2, read-out: Average IC50, d5 of incubation, 8000 cells seeded

3'-fluoro-benzyl-spiperone
CC50 [1]: 27.4 µM

Nc1cc2c3ccccc3ccc2c2ccccc12 [6-amino-chrysene]
CC50 [2]: > 33 µM
SI (CC50/IC50) [3, 10]: 2.84
IC50 [4, 11]: 11.6 µM

Nc1nc2nn[nH]c2c(=O)[nH]1 [8-Azaguanine]
CC50 [2]: 10.4 µM
SI (CC50/IC50) [3]: 2.79
IC50 [4, 11]: 3.72 µM

CCN1CCN(Cc2ccc(-c3cc4c(N[C@H](C)c5ccccc5)ncnc4[nH]3)cc2)CC1 [AEE788]
SI (CC50/IC50) [3, 10]: 8.38
CC50 at 4 days [5]: > 33 µM
IC50 [4, 11]: 3.94 µM

Cc1cc(O[C@@H](CCC(F)(F)F)c2ccc(C(=O)NCCC(=O)O)cc2)cc(C)c1-c1ccc(C(C)(C)C)cc1 [Adomeglivant]
CC50 at 4 days [2]: > 33 µM

CCN(CC)Cc1cc(Nc2ccnc3cc(Cl)ccc23)ccc1O [Amodiaquine]
SI (CC50/IC50) [3]: 4.12
CC50 at 4 days [5]: 16.8 µM
IC50 [4, 11]: 4.07 µM

CC(=O)[C@]1(N)Cc2c(O)c3c(c(O)c2[C@@H](O[C@H]2C[C@H](O)[C@H](O)CO2)C1)C(=O)c1ccccc1C3=O [Amrubicin]
CC50 [2]: > 33 µM
SI (CC50/IC50) [3, 10]: 100.00
IC50 [4, 11]: 0.33 µM

CC(C)COCC(CN(Cc1ccccc1)c1ccccc1)N1CCCC1 (centres unmarked) [Bepridil]
CC50 at 4 days [5]: 23.4 µM

COc1ccc2c(c1)[C@]1(C[C@H]1c1ccc3c(/C=C/c4ccc(CN5C[C@@H](C)O[C@@H](C)C5)cc4)n[nH]c3c1)C(=O)N2 [CFI-400945]
CC50 at 4 days [2]: > 33 µM

O=C(c1c2ccccc2cc2ccccc12)N1CCC(N2CCC[C@@H](C(=O)N3CCOCC3)C2)CC1 [CP-640186 (hydro-chloride)]
CC50 [6]: 10.9 µM

O=C(c1c2ccccc2cc2ccccc12)N1CCC(N2CCC[C@@H](C(=O)N3CCOCC3)C2)CC1 [CP-640186]
CC50 [1]: 10.2 µM

CCN(CC)CCCC(C)Nc1ccnc2cc(Cl)ccc12 (centres unmarked) [Chloroquine, chloroquine]
IC50 [7, 12]: 11.3 µM
IC50 [7, 13]: 8.69 µM
IC50 [7, 14]: 13.4 µM
IC50 [7, 15]: 13.5 µM
IC50 [7, 16]: 13.5 µM
IC50 [7, 17]: 17.1 µM

CCN(CC)CCOc1ccc(C(=C(Cl)c2ccccc2)c2ccccc2)cc1 [Clomiphene citrate]
CC50 at 4 days [5]: > 33 µM

CCN(CC)c1ccc2cc(-c3nc4ccccc4[nH]3)c(=O)oc2c1 [Coumarin 7]
IC50 [3]: 0.36 µM
SI (CC50/IC50) [3]: 91.67

C[C@@H]1C[C@@H]([C@H](O)CC2CC(=O)NC(=O)C2)C(=O)[C@@H](C)C1 [Cycloheximide]
CC50 [2]: 10.2 µM

Nc1ncnc2c1ncn2[C@@H]1CC[C@@H](O)[C@H]1O [DHCaA]
CC50 [6]: 15.7 µM

O=C1OC2(c3ccc(O)cc3Oc3cc(O)ccc32)c2ccccc21 [Fluorescein]
SI (CC50/IC50) [3, 10]: 49.25
CC50 at 4 days [5]: > 33 µM
IC50 [4, 11]: 0.67 µM

CN1CCN(C2CCN(C(=O)Nc3cc(Oc4ccc(NC(=O)C5(C(=O)Nc6ccc(F)cc6)CC5)c(F)c4)ccn3)CC2)CC1 [Golvatinib (E7050), Golvatinib]
CC50 at 4 days [2]: > 33 µM
SI (CC50/IC50) [3, 10]: 5.60
IC50 [4, 11]: 5.89 µM

CCCCN(CCCC)CCC(O)c1cc2c(Cl)cc(Cl)cc2c2cc(C(F)(F)F)ccc12 (centres unmarked) [Halofantrine hydrochloride]
CC50 at 4 days [5]: > 33 µM

CCN(CCO)CCCC(C)Nc1ccnc2cc(Cl)ccc12 (centres unmarked) [Hydroxychloroquine, hydroxychloroquine]
IC50 [7, 12]: 16.4 µM
IC50 [7, 13]: 15.8 µM
IC50 [7, 14]: 21 µM
IC50 [7, 15]: 25.8 µM
IC50 [7, 17]: 43.6 µM

Cc1cc(O)c2c(=O)c3c(O)cc(O)c4c5c(O)cc(O)c6c(=O)c7c(O)cc(C)c8c1c2c(c34)c(c78)c65 [Hypericin]
CC50 [2]: 1.31 µM
SI (CC50/IC50) [3, 10]: 5.24
IC50 [4, 11]: 0.25 µM

CCCCCCCCCCCCCCOc1ccc(C(=O)O)o1 [KD-023]
IC50 [3]: 4.04 µM
SI (CC50/IC50) [3, 10]: 8.17

Cc1cccc(C)c1OCC(=O)N[C@@H](Cc1ccccc1)[C@@H](O)C[C@H](Cc1ccccc1)NC(=O)[C@H](C(C)C)N1CCCNC1=O [Lopinavir, lopinavir]
IC50 [7, 12]: 9.21 µM
IC50 [7, 13]: 7.58 µM
IC50 [7, 14]: 11.3 µM
IC50 [7, 15]: 12 µM
IC50 [7, 17]: 21.1 µM

CC(C)C[C@@H](C=O)NC(=O)[C@H](CC(C)C)NC(=O)[C@H](CC(C)C)NC(=O)OCc1ccccc1 [MG-132] (Cbz-Leu-Leu-Leu-aldehyde)
CC50 at 4 days [5]: 2.9 µM

Cc1ccc(NC(=O)c2ccc(CN3CCN(C)CC3)cc2)cc1Nc1nc(-c2cccnc2)cs1 [Masitinib (AB1010), Masitinib]
CC50 at 4 days [5]: > 33 µM
IC50 [4, 11]: < 20 µM

CC(C)(C)NCc1ccc(Nc2ccnc3cc(Cl)ccc23)cc1O [N-tert-Butylisoquine]
CC50 at 4 days [2]: 12.4 µM

O=C(Nc1ccc([N+](=O)[O-])cc1Cl)c1cc(Cl)ccc1O [Niclosamide]
SI (CC50/IC50) [3]: 8.05
CC50 at 4 days [5]: > 33 µM
IC50 [4, 11]: 4.1 µM

Cc1[nH]c(/C=C2\C(=O)Nc3ccc(S(=O)(=O)Cc4c(Cl)cccc4Cl)cc32)c(C)c1C(=O)N1CCC[C@@H]1CN1CCCC1 [PHA-665752]
CC50 [2]: > 33 µM

O=C(c1ccc(OCCN2CCCCC2)cc1)c1c(-c2ccc(O)cc2)sc2cc(O)ccc12 [Raloxifene hydrochloride]
activity against coronavirus OCR43 [8]: active
IC50 [3]: 15.4 µM
SI (CC50/IC50) [3]: 2.14
CC50 at 4 days [5]: > 33 µM
IC50 [4, 11]: < 20 µM
activity in phenotypic assay of SARS CoV-2 viral infection [9]: active

CCC(CC)COC(=O)[C@H](C)N[P@](=O)(OC[C@H]1O[C@@](C#N)(c2ccc3c(N)ncnn23)[C@H](O)[C@@H]1O)Oc1ccccc1 [Remdesivir, remdesivir]
IC50 [7, 12]: 2.73 µM
IC50 [7, 13]: 1.56 µM
IC50 [7, 14]: 3.74 µM
IC50 [7, 15]: 2.27 µM
IC50 [7, 16]: 4.67 µM
IC50 [7, 17]: 2.99 µM
IC50 ([4]; Severe acute respiratory syndrome coronavirus 2, Vero C1008, read-out: IC50 (%Confluence versus compound concentration), positive control, curve fitting example Fig. 4): 1.7 µM

Cc1cccc(Nc2nc(-c3ccncc3)cs2)c1 [STF-62247]
CC50 [1]: 31.5 µM

COc1cc2c(N3CCN(C(=O)Nc4ccc(OC(C)C)cc4)CC3)ncnc2cc1OCCCN1CCCCC1 [Tandutinib (MLN518), Tandutinib]
CC50 [2]: > 33 µM
IC50 [3]: < 20 µM

COc1ccc2cc1Oc1ccc(cc1)C[C@H]1c3cc(c(OC)cc3CCN1C)Oc1c(OC)c(OC)cc3c1[C@H](C2)N(C)CC3 [Tetrandrine (Fanchinine), Tetrandrine]
CC50 at 4 days [5]: > 33 µM

COc1cc(C[C@H]2c3cc(OC)c(OC)cc3CCN2C)c(Oc2cc3c(cc2OC)-c2c(OC)c(OC)cc4c2[C@H](C3)N(C)CC4)cc1OC [Thaliblastine]
IC50 [3]: 3.87 µM
SI (CC50/IC50) [3, 10]: 8.53

Nc1c[nH]c(=O)c2cc(-c3ccccc3)sc12 [Thieno-pyridone]
IC50 [3]: 5.26 µM
SI (CC50/IC50) [3, 10]: 6.27
CC50 [6]: > 33 µM

Nc1nc2c(ncn2[C@@H]2O[C@H](CO)[C@@H](O)[C@H]2O)c(=S)[nH]1 [Thioguanosine]
CC50 [2]: > 33 µM

COc1cc(NCc2ccc3nc(N)nc(N)c3c2C)cc(OC)c1OC [Trimetrexate]
IC50 [3]: < 20 µM
CC50 at 4 days [5]: 1.99 µM

CNCc1ccc(-c2cc(-c3nc(-c4ccc(S(=O)(=O)C(C)C)cc4)cnc3N)on2)cc1 [VE-822]
CC50 at 4 days [2]: 10 µM
IC50 [3]: < 20 µM
SI (CC50/IC50) [3, 10]: 3.75

CC(C)(O)CNc1ncc(-c2ccnc(Nc3ccnc(Cl)c3)n2)c(CC2CC2)n1 [VPS34-IN-1]
CC50 [2]: 26.8 µM

Cc1c(O)cccc1C(=O)N[C@@H](CSc1ccccc1)[C@H](O)CN1C[C@H]2CCCC[C@H]2C[C@H]1C(=O)NC(C)(C)C [[…]]
CC50 [2]: > 33 µM

OCCNC1CCCc2c1[nH]c1ccc(-c3ccccc3)cc21 (centres unmarked) [casin]
CC50 [6]: > 33 µM

Rhodamine-123
IC50 [3]: 0.8 µM
SI (CC50/IC50) [3, 10]: 41.25
